The target of assay [1] is T1, mitochondrial calcium uniporter (MCU) (Homo sapiens, UniProt Q8NE86).
T1 sequence (Q8NE86 51-351): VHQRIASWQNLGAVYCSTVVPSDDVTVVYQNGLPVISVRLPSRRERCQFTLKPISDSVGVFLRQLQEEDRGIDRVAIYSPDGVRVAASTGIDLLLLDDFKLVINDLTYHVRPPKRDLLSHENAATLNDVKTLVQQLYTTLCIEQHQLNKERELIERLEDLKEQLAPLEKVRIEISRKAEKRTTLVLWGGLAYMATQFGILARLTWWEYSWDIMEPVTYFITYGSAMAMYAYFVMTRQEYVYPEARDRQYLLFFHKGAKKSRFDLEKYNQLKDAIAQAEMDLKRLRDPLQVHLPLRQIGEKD
T1 sequence (Q9H4I9 48-107 partner limits assumed): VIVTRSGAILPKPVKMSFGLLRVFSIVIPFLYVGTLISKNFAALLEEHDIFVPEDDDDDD
Briefly: Cytoplasmic and mitochondrial Ca2+ dynamics in intact HeLa cells after histamine. Type of assay: cell-based. Also noted: 30 min) and Rhod-2 AM; endogenous in cells; host or cells: HeLa (intact; some experiments with transfected Ca2+ sensors R-GECO1 and GCamP6-mt, MCU itself not transfected). The conditions noted are these: intact HeLa cells, 50 μM for 30 minutes, histamine 100 μM; Rhod-2 AM and GCamP6-mt. As for the experimental part:
HeLa cells were loaded with Fluo-4-AM (5 μM; 30 min) and Rhod-2 AM (2 μM; 50 min) in extracellular medium as previously described (F. Perocchi et al, Nature 2010, 467, 291-296). Coverslips were mounted in an open perfusion microincubator at 37° C. and imaged. After 1 minute of baseline recording, histamine (100 μM) was added, and confocal images were recorded every 3 seconds at 488 and 561 nm excitation using a 40× oil objective. Images were analyzed and quantified by using ImageJ (NIH).
HeLa cells were transiently transfected with genetically encoded cytosolic and mitochondrial targeted Ca^2+ sensors R-GECO1 and GCamP6-mt plasmids. After 48 hours, the transfected cells were treated with MCU inhibitors (C1, C-2, and C-3; 50 μM). After 1 minute of baseline recording, histamine (100 μM) was added, and the change of R-GECO1 and GCamP6-mt fluorescence was measured with 488-nm and 561-nm excitation on a confocal microscope equipped with a 40× oil objective. Images were analyzed and quantified by using ImageJ (NIH).
Encouraged by the high cell permeability and mitochondrial selectivity of C-2, the capability of this complex to inhibit MCU-mediated mCa^2+ uptake in intact, non-permeabilized cells was investigated Briefly, HeLa cells were loaded with the cytosolic calcium concentration ([Ca^2+]) indicator Fluo-4 AM and the mitochondrial calcium concentration ([…]) indicator Rhod-2 AM in the presence or absence of C-1, C-2, and C-3 (50 μM). Cells were stimulated with the GPCR agonist histamine (100 μM) to rapidly elevate cCa^2+ levels to induce mCa^2+ uptake (Z. Dong et al., Mol. Cell 2017, 65, 1014-1028).
FIGS. 3A and 3B are graphs showing results of cytosolic ([Ca^2+]e, Fluo-4 AM) and mitochondrial ([Ca^2+]m, Rhod-2 AM) calcium transients in HeLa cells after treatment with histamine (100 μM) that were pretreated with or without C-1, C-2, or C-3 (50 μM) for 30 minutes. FIGS. 3C and 3D are graphs showing results of cytosolic ([Ca^2+]e, R-GECO) and mitochondrial ([Ca^2+]m, GCamP6-mt)) calcium transients in HeLa cells after treatment with histamine (100 μM) that were pretreated with or without C-1, C-2, or C-3 (50 μM) for 30 minutes. HeLa cells were co-transfected with R-GECO1 and GCamP6-mt. 48 hours post-transfection. Data are represented as mean±SEM. *p<0.05. n=3-6.

Assay [2] has as its target T1, mitochondrial calcium uniporter (MCU). Briefly: MCU-mediated Ca2+ uptake and ΔΨm in permeabilized HEK293T cells. In kind it is cell-based. Also noted: endogenous in cells; host or cells: HEK293T (digitonin-permeabilized). The conditions noted are these: 5 μM compound, 20 μM Ca2+ bolus. As for the experimental part: An equal number of IHEK293T (6×10^6 cells) were washed in Ca^2+ free PBS, pH 7.4, resuspended and permeabilized with 40 μg/ml digitonin in 1.5 ml of intracellular medium (ICM) composed of 120 mM KCl, 10 mM NaCl, 1 mM K—H2PO4, 20 mM HE PES-Tris, pH 7.2 and 2 μM thapsigargin to block the SERCA pump. All measurements were performed in the presence of 2 mM succinate. The permeabilized cells were loaded with JC-1 (800 nM) and Fura2-FF (0.5 μM), respectively. Fluorescence was monitored in a multi-wavelength excitation dual-wavelength emission fluorimeter. [Ca^2+]out is represented as the excitation ratio (340 nm/380 nm) of Fura2-FF/FA fluorescence and ΔΨm as the ratio of the fluorescence of J-aggregate (570 nm excitation/595 nm emission) and monomer (490 nm excitation/535 nm emission) forms of JC-1. A series of extra-mitochondrial Ca^2+ bolus (20 μM) was added and mitochondrial uncoupler, CCCP (2 jμM), were added at the indicated time points. All of the experiments were performed at 37° C. with constant stirring.
With the new nitrido-bridged ruthenium compounds C-2 and C-3 prepared, MCU-inhibitory properties of these compounds were evaluated and their activities compared to C-1, the oxo-bridged Ru360 analogue of the conventional art (S. R. Nathan et al., Inorg. Chem. 2017, 56, 3123-3126 and S. R. Nathan et al., J. Vis. Exp. 2017, 56527). The cytotoxicity of the complexes in HEK293 cells was first measured using the colorimetric thiazolyl blue tetrazolium bromide (MTT) assay, as well known in the art. […] To measure the effect of these compounds on MCU activity, permeabilized HEK293T cells were treated with commercially available Ru360, C-1, C-2, or C-3 (5 jμM) 200 seconds prior to the delivery of a 20 μM bolus of Ca^2+ in the presence of 2 mM succinate as an energy source and the sarco/endoplasmic reticulum Ca^2+-ATPase (SERCA) pump blocker thapsigargin to prevent ER Ca^2+ uptake (S. Shanmughapriya et al., Sci. Signal. 2015, 8, ra23).
FIGS. 2A-2C are graphs showing changes in mitochondrial membrane potential (ΔΨm, JC-1, top panel) and extramitochondrial Ca^2+([Ca^2+]out) clearance (Fura-2 FF, bottom panel) in digitonin permeabilized HEK293T cells in response to 20 μM of Ca^2+ after treatment with 5 μM of C-1 (FIG. 2A), C-2 (FIG. 2B), and C-3 (FIG. 2C). The transient drop in ΔΨm in control cells upon Ca^2+ addition indicates accumulation of Ca^2+ in the mitochondrial matrix. FIG. 2D is a graph quantifying the rate of [Ca^2+] uptake as a function of decrease in [Ca^2+]out after a […] Ca^2+ pulse. […] Additionally, ΔΨm was monitored using 5,5′,6,6′-tetrachloro-1,1′,3,3′-tetraethylbenzimidazolylcarbocyanine iodide (JC-1) dye (M. Reen et al., Biochemistry 1991, 30, 4480-4486).
Having identified (C-2 as a cell-permeable MCU inhibitor, a dose-response analysis was performed to determine the potency of C-2 towards mCa^2+ uptake inhibition of C-2 in a permeabilized cell system. Permeabilized IHEK293T cells were treated with C-2 (1 nM to 1 μM). A 20 μM Ca^2+ bolus was added after baseline recording, and the extra-mitochondrial calcium cleared was used as an indicator for MCU-mediated mCa^2+ uptake using Fura-2FF. The results are shown in FIGS. 4A-4C. FIG. 4A includes representative traces of [Ca^2+]out clearance in permeabilized HEK293T cells challenged with a range of C-2 concentrations (1, 2, 3, 5, and 10 nM). FIG. 4B is a graph comparing MCU-inhibitory effect by Ru360 (30 nM) and C-2 (2 and 10 nM) at lower concentrations. FIG. 4C is a graph showing calculation of dose-dependent IC50 inhibition by C-2 and Ru360. Data represent mean±SEM (n=3-6), n.s.=not significant. […] Furthermore, complete inhibition of mCa^2+ uptake was observed when cells were dosed with 10 nM C-2 while 500 nM of Ru360 was required for the same response (FIGS. 4A and 4B).

As to “[Ru2(μ-O)(NH3)8(H2O)2]^+5 [C-1, reference compound]”, the “inhibition of MCU-mediated mCa2+ uptake in intact cells” value in assay [1] is recorded as “did not show appreciable inhibition of mCa^2+ uptake”. Besides, the “MCU mediated mCa2+ uptake” value in assay [2] (digitonin permeabilized HEK293T cells) was “significant reduction in MCU mediated mCa^2+ uptake”. Also, the “transient ΔΨm loss (JC-1)” value in assay [2] (permeabilized HEK293T cells) was “no transient A m loss”.

(Values after patent US11154569B2, “Ruthenium μ-nitrido complexes and their use as calcium uptake inhibitors” (CORNELL UNIVERSITY, priority 2018, dated 2021).)
